# ChEMBL document CHEMBL1145235, “Optimization of pyrrolidinone based HIV protease inhibitors” (Bioorg Med Chem Lett, 2005)
# Key:
# [1] = biological target: Human immunodeficiency virus type 1 protease (Human immunodeficiency virus 1, UniProt Q72874); assay: Inhibition constant against HIV Protease
# [2] = system: MT4; assay: Antiviral inhibitory concentration against human immunodeficiency virus type 1 in MT-4 cell culture; type: functional, cell-based
Ki [1],SMILES,IC50 [2]
0.06 nM,O=C(C[C@@H](Cc1ccc(O)cc1)C(=O)NC1c2ccccc2C[C@H]1O)CN1C(=O)[C@@H](Cc2ccccc2)C[C@@H]1Cc1ccccc1 (some centres undefined),320 nM
0.3 nM,O=C(C[C@@H](Cc1ccccc1)C(=O)NC1c2ccccc2C[C@H]1O)CN1C(=O)[C@@H](Cc2ccccc2)C[C@@H]1Cc1ccc(OCCO)cc1 (some centres undefined),480 nM
0.1 nM,O=C(C[C@@H](Cc1ccccc1)C(=O)NC1c2ccccc2C[C@H]1O)CN1C(=O)[C@@H](Cc2ccccc2)C[C@@H]1Cc1ccc(OCC(=O)N2CCOCC2)cc1 (some centres undefined),200 nM
0.13 nM,O=C(C[C@@H](Cc1ccccc1)C(=O)NC1c2ccccc2C[C@H]1O)CN1C(=O)[C@@H](Cc2ccccc2)C[C@@H]1Cc1ccc(OCc2ccccc2)cc1 (some centres undefined),550 nM
0.02 nM,COCCOCCOc1ccc(C[C@H](CC(=O)CN2C(=O)[C@@H](Cc3ccccc3)C[C@@H]2Cc2ccccc2)C(=O)NC2c3ccccc3C[C@H]2O)cc1 (some centres undefined),93 nM
0.02 nM,O=C(C[C@@H](Cc1ccc(OCC(=O)N2CCOCC2)cc1)C(=O)NC1c2ccccc2C[C@H]1O)CN1C(=O)[C@@H](Cc2ccccc2)C[C@@H]1Cc1ccccc1 (some centres undefined),63 nM
0.02 nM,O=C(C[C@@H](Cc1ccc(OCCO)cc1)C(=O)NC1c2ccccc2C[C@H]1O)CN1C(=O)[C@@H](Cc2ccccc2)C[C@@H]1Cc1ccccc1 (some centres undefined),94 nM
0.14 nM,O=C(C[C@@H](Cc1ccc(OCCN2CCOCC2)cc1)C(=O)NC1c2ccccc2C[C@H]1O)CN1C(=O)[C@@H](Cc2ccccc2)C[C@@H]1Cc1ccccc1 (some centres undefined),83 nM
0.07 nM,NC(=O)COc1ccc(C[C@H](CC(=O)CN2C(=O)[C@@H](Cc3ccccc3)C[C@@H]2Cc2ccccc2)C(=O)NC2c3ccccc3C[C@H]2O)cc1 (some centres undefined),360 nM
1.3 nM,O=C(C[C@@H](Cc1ccccc1)C(=O)NC1c2ccccc2C[C@H]1O)CN1C(=O)[C@@H](Cc2ccccc2)C[C@@H]1Cc1ccc(OCCN2CCOCC2)cc1 (some centres undefined),960 nM
0.05 nM,CN1CCN(C(=O)COc2ccc(C[C@H](CC(=O)CN3C(=O)[C@@H](Cc4ccccc4)C[C@@H]3Cc3ccccc3)C(=O)NC3c4ccccc4C[C@H]3O)cc2)CC1 (some centres undefined),130 nM
,O=C(C[C@@H](Cc1ccccc1)C(=O)NC1c2ccccc2C[C@H]1O)CN1C(=O)[C@@H](Cc2ccccc2)C[C@@H]1Cc1ccc(O)cc1 (some centres undefined),200 nM
0.05 nM,O=C(C[C@@H](Cc1ccccc1)C(=O)NC1c2ccccc2C[C@H]1O)CN1C(=O)[C@@H](Cc2ccccc2)C[C@@H]1Cc1ccccc1 (some centres undefined),720 nM
0.07 nM,O=C(C[C@@H](Cc1ccc(OCc2ccccn2)cc1)C(=O)NC1c2ccccc2C[C@H]1O)CN1C(=O)[C@@H](Cc2ccccc2)C[C@@H]1Cc1ccccc1 (some centres undefined),380 nM
0.11 nM,O=C(C[C@@H](Cc1ccc(OCc2ccccc2)cc1)C(=O)NC1c2ccccc2C[C@H]1O)CN1C(=O)[C@@H](Cc2ccccc2)C[C@@H]1Cc1ccccc1 (some centres undefined),920 nM
